The record followed here is ChEMBL document CHEMBL4715740, “Synthesis, anti-inflammatory, analgesic, COX-1/2 inhibitory activities and molecular docking studies of substituted 2-mercapto-4(3H)-quinazolinones” (Eur J Med Chem, 2016).

Molecules are shown by their SMILES.

The target of assay [1] is T1, Prostaglandin G/H synthase 1 (Ovis aries, UniProt P05979).
T1 sequence (P05979 whole entry): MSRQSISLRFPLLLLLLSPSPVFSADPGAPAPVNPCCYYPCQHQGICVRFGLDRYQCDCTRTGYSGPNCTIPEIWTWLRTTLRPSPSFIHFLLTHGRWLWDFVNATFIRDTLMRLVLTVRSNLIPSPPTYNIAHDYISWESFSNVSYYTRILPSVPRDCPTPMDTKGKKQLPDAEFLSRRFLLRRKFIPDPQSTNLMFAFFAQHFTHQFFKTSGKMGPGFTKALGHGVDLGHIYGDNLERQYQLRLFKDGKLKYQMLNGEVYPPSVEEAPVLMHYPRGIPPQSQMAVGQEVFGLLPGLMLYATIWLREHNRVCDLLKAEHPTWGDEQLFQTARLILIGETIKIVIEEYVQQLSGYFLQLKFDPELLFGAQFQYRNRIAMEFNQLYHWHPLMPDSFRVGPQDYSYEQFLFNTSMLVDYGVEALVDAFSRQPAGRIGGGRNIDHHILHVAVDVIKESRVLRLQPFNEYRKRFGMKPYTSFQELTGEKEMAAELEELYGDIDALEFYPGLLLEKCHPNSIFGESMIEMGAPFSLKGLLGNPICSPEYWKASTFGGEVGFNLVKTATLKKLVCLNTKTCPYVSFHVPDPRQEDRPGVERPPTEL
Briefly: Inhibition of ovine COX1 assessed as reduction in PGF2alpha production using arachidonic acid as substrate preincubated with enzyme for 5 mins followed by substrate addition and measured after 2 mins by colorimetric analysis.

Another assay concerns Rattus norvegicus. Briefly: Antiinflammatory activity against Sprague-Dawley rat assessed as reduction in carragenan-induced paw edema administered ip and measured after 2 hrs by plethysmometry. The class given is functional.
The subject of another assay is Mus musculus. Briefly: Analgesic activity in Swiss albino mouse administered ip and measured after 60 mins by hot plate method. The class given is functional. The note with it: 1 h. Background: Thermal pain tests record how soon the animal reacts.

By IC50 is commonly meant the concentration needed to halve the response being measured. For the compound `O=c1c2ccccc2nc(S)n1CCc1ccccn1`, the IC50 in assay [1] is over 100 µM.
A word on the ED50: it is the midpoint of the dose-response relation. On to `CCOC(=O)CSc1nc2ccccc2c(=O)n1CCc1ccccn1`, for which the ED50 in the assay on Rattus norvegicus and in the assay on Mus musculus was over 200 mg/kg in each case.
As for `NNC(=O)CSc1nc2ccccc2c(=O)n1CCc1ccccn1`, in assay [1], the IC50 is over 100 µM.
`CC(C)c1ccc(CSc2nc3ccccc3c(=O)n2CCc2ccccn2)cc1`: the ED50 with Rattus norvegicus and in the assay with Mus musculus was over 200 mg/kg throughout.
Turning to `N#CCSc1nc2ccccc2c(=O)n1CCc1ccccn1`, the ED50 with Rattus norvegicus and in the assay with Mus musculus was over 200 mg/kg in each case.
Regarding `CCn1c(S)nnc1CSc1nc2ccccc2c(=O)n1CCc1ccccn1`, the 50% effective dose (ED50) with Rattus norvegicus is 91.9 mg/kg; in the assay on Mus musculus it was 71.4 mg/kg. Also, the IC50 in assay [1] was over 100 µM.
`CCNC(=S)NNC(=O)CSc1nc2ccccc2c(=O)n1CCc1ccccn1`: the ED50 is 70.5 mg/kg in the assay on Rattus norvegicus and 33.3 mg/kg with Mus musculus. Moreover, the concentration for half-maximal inhibition (IC50) in assay [1] was over 100 µM.
`O=C1c2ccccc2C(=O)N1CCCSc1nc2ccccc2c(=O)n1CCc1ccccn1`: the ED50 in the assay with Rattus norvegicus and with Mus musculus was over 200 mg/kg each time.
Regarding `COc1ccc(C(=O)NNC(=O)CSc2nc3ccccc3c(=O)n2CCc2ccccn2)cc1`, the ED50 in the assay with Rattus norvegicus and with Mus musculus was 101 mg/kg in each case. In assay [1], the IC50 was over 100 µM.
As to `O=c1c2ccccc2nc(SCc2ccc(Cl)cc2)n1CCc1ccccn1`, the ED50 is 65.7 mg/kg with Rattus norvegicus and 99.2 mg/kg in the assay with Mus musculus. Further, the IC50 in assay [1] is over 100 µM.
For `CCNc1nnc(CSc2nc3ccccc3c(=O)n2CCc2ccccn2)s1`, the ED50 in the assay with Rattus norvegicus and in the assay with Mus musculus was over 200 mg/kg in each case.
Turning to `O=C(CSc1nc2ccccc2c(=O)n1CCc1ccccn1)NNC(=O)c1ccccc1`, the ED50 in the assay on Rattus norvegicus was determined as 90.1 mg/kg; in the assay on Mus musculus it was 86.1 mg/kg. Also, the IC50 in assay [1] is over 100 µM.
For the compound `O=c1c2ccccc2nc(SCCN2CCOCC2)n1CCc1ccccn1`, the ED50 in the assay on Rattus norvegicus and in the assay with Mus musculus was over 200 mg/kg throughout.
In the case of `CCC(=O)NNC(=O)CSc1nc2ccccc2c(=O)n1CCc1ccccn1`, the ED50 turned out to be 83.3 mg/kg in the assay on Rattus norvegicus and 95.5 mg/kg with Mus musculus. The IC50 in assay [1] is over 100 µM.
In the case of `COc1ccc(NC(=S)NNC(=O)CSc2nc3ccccc3c(=O)n2CCc2ccccn2)cc1`, the ED50 with Rattus norvegicus and in the assay on Mus musculus was over 200 mg/kg each time.
As to `O=C(CSc1nc2ccccc2c(=O)n1CCc1ccccn1)NNC(=S)NCc1ccccc1`, the ED50 in the assay with Rattus norvegicus was over 200 mg/kg; with Mus musculus, 47.4 mg/kg.
On to `O=c1c2ccccc2nc(SCc2nnc(S)n2-c2ccccc2)n1CCc1ccccn1`, for which the ED50 with Rattus norvegicus and with Mus musculus was over 200 mg/kg each time.
Take `O=c1c2ccccc2nc(SCc2nnc(Nc3ccccc3)s2)n1CCc1ccccn1`: the ED50 in the assay on Rattus norvegicus and in the assay on Mus musculus was over 200 mg/kg throughout.
On to `O=c1c2ccccc2nc(SCc2nnc(NCc3ccccc3)s2)n1CCc1ccccn1`, for which the ED50 in the assay on Rattus norvegicus and in the assay on Mus musculus was over 200 mg/kg in each case.
Consider `CSc1nc2ccccc2c(=O)n1CCc1ccccn1`, for which the ED50 in the assay on Rattus norvegicus and with Mus musculus was over 200 mg/kg each time.
Regarding `O=C(CSc1nc2ccccc2c(=O)n1CCc1ccccn1)NNC(=S)Nc1ccccc1`, the median effective dose (ED50) in the assay on Rattus norvegicus and in the assay on Mus musculus was over 200 mg/kg in each case.
For `COc1ccc(Nc2nnc(CSc3nc4ccccc4c(=O)n3CCc3ccccn3)s2)cc1`, the ED50 in the assay on Rattus norvegicus and in the assay with Mus musculus was over 200 mg/kg throughout.
On to `CCSc1nc2ccccc2c(=O)n1CCc1ccccn1`, for which the ED50 with Rattus norvegicus stood at 74.5 mg/kg; in the assay with Mus musculus it was 105 mg/kg. Further, the IC50 in assay [1] is over 100 µM.
Take `O=C(CSc1nc2ccccc2c(=O)n1CCc1ccccn1)NNC(=O)c1ccc(Cl)cc1`: the ED50 in the assay with Rattus norvegicus and with Mus musculus was over 200 mg/kg throughout.
On to `O=c1c2ccccc2nc(SCc2ccccc2)n1CCc1ccccn1`, for which the ED50 with Rattus norvegicus and with Mus musculus was over 200 mg/kg throughout.
Take `O=c1c2ccccc2nc(SCc2nnc(S)n2Cc2ccccc2)n1CCc1ccccn1`: the ED50 in the assay on Rattus norvegicus and in the assay with Mus musculus was over 200 mg/kg throughout.
Take `Cc1ccc(-c2cc(C(F)(F)F)nn2-c2ccc(S(N)(=O)=O)cc2)cc1` [CELECOXIB]: the values for the ED50 in the assay on Rattus norvegicus and in the assay on Mus musculus were 84.3 mg/kg and 71.6 mg/kg, respectively.
